# Experimental data as given in paper PMC3262391 (Clinical pharmacology : advances and applications, 2011).
# Like-named read-outs stand apart in the source and are kept apart here.
# Legend:
# [1] = Simvastatin study: two-way pharmacokinetic interaction, plasma pharmacokinetics; conditions: for decrease of Cmax by saxagliptin / increase of AUCτ by saxagliptin: saxagliptin 10 mg + simvastatin 40 mg relative to simvastatin alone
# [2] = Ketoconazole study: adverse events; assay type: in vivo, healthy subjects
# [3] = Simvastatin study: adverse events; assay type: in vivo, healthy subjects
# [4] = Diltiazem extended-release study: adverse events; assay type: in vivo, healthy subjects; conditions: for first-degree atrioventricular block, subjects: by treatment: diltiazem extended-release 360 mg alone, saxagliptin 10 mg + diltiazem extended-release 360 mg, saxagliptin 10 mg alone
# [5] = Ketoconazole study: two-way pharmacokinetic interaction, plasma pharmacokinetics; assay type: in vivo, healthy subjects; conditions: for t½: mean (SD)
# P-glycoprotein = conditions: in vitro data; no reference given; cited from earlier work
# CYP2C9 [6] = conditions: in vitro studies; cited from earlier work
# CYP2C19 = conditions: in vitro studies; cited from earlier work
# CYP3A4 [7] = conditions: in vitro studies; cited from earlier work
# CYP3A4 [8] = conditions: in vitro studies; cited from earlier work; remark: listed apart in the source
# [9] = excreted in urine; cited from earlier work
# CYP2C9 [10] = conditions: in vitro studies; cited from earlier work; remark: listed apart in the source
# CYP2D6 = conditions: in vitro studies; cited from earlier work
# [11] = assay type: in vivo, healthy subjects; conditions: for t½: mean (SD)
# DPP-4 = conditions: cited from earlier work
# CYP1A2 [12] = conditions: in vitro studies; cited from earlier work
# CYP1A2 [13] = conditions: in vitro studies; cited from earlier work; remark: listed apart in the source
# CYP2B6 [14] = conditions: in vitro studies; cited from earlier work
# CYP2E1 = conditions: in vitro studies; cited from earlier work
# CYP2A6 = conditions: in vitro studies; cited from earlier work
# CYP2B6 [15] = conditions: in vitro studies; cited from earlier work; remark: listed apart in the source
# [16] = compared with saxagliptin alone
# [17] = compared with saxagliptin 10 mg alone
# [18] = saxagliptin 10 mg + simvastatin 40 mg relative to saxagliptin alone
# [19] = saxagliptin 100 mg + ketoconazole versus ketoconazole alone
# [20] = saxagliptin 100 mg + ketoconazole 200 mg every 12 hours (day 9), geometric mean (CV%), n = 15
# [21] = saxagliptin 100 mg administered alone (day 1), geometric mean (CV%), n = 15
# [22] = saxagliptin 10 mg + diltiazem extended-release 360 mg (day 10), geometric mean (CV%), n = 12
# [23] = saxagliptin 10 mg administered alone (day 1), geometric mean (CV%), n = 12
structure (smiles),measurement,setting,value
"CCC(C)(C)C(=O)O[C@H]1C[C@@H](C)C=C2C=C[C@H](C)[C@H](CC[C@@H](O)C[C@@H](O)CC(=O)O)[C@H]21 [Simvastatin acid, simvastatin acid]",AUC,"[1]; human, in vivo, 40 mg",17.9 ng·h/mL
same,decrease of Cmax by saxagliptin,[1],unchanged
same,increase of AUCτ by saxagliptin,[1],16%
same,Tmax,"[1]; simvastatin 40 mg administered alone (day 8), median (minimum, maximum)","4.00 (2.00, 8.00) h"
"N#C[C@@H]1C[C@@H]2C[C@@H]2N1C(=O)[C@@H](N)C12CC3CC(CC(O)(C3)C1)C2 [Saxagliptin, saxagliptin, reference compound]",serious adverse events or deaths,[2]; after coadministration of saxagliptin and ketoconazole,no serious adverse events or deaths
same,serious adverse events or deaths,[3]; after coadministration of saxagliptin and simvastatin,no serious adverse events or deaths
same,serious adverse events or deaths,[4]; after coadministration of saxagliptin and diltiazem extended-release,no serious adverse events or deaths
same,"first-degree atrioventricular block, subjects",[4],in no subjects
same,increase of AUC0-t by ketoconazole,[5]; [16],148%
same,increase of AUC∞ by ketoconazole,[5]; [16],145%
same,increase of Cmax by ketoconazole,[5]; [16],62%
same,AUC0-t,"[5]; human, plasma, 100 mg",1920 ng·h/mL
same,AUC(0-inf),"[5]; human, plasma, 100 mg",1970 ng·h/mL
same,Cmax,"[5]; human, plasma, 100 mg",546 ng/mL
same,Tmax,"[5]; human, plasma, 100 mg",1 h
same,half-life,"[5]; human, plasma, 100 mg",2.37 h
same,increase of mean t½ by ketoconazole,[5]; versus saxagliptin alone,1.1 h
same,substrate for the efflux transporter P-glycoprotein,P-glycoprotein,weak substrate
same,induction of CYP2C9,CYP2C9 [6],do not induce
same,inhibition of CYP2C19,CYP2C19,neither saxagliptin nor 5-hydroxy saxagliptin inhibits
same,induction of CYP3A4,CYP3A4 [7],do not induce
same,inhibition of CYP3A4,CYP3A4 [8],neither saxagliptin nor 5-hydroxy saxagliptin inhibits
same,renal clearance,[9],approximately 230 mL/min
same,inhibition of CYP2C9,CYP2C9 [10],neither saxagliptin nor 5-hydroxy saxagliptin inhibits
same,inhibition of CYP2D6,CYP2D6,neither saxagliptin nor 5-hydroxy saxagliptin inhibits
same,increase of AUC0-t by diltiazem extended-release,[11]; [17],113%
same,increase of AUC∞ by diltiazem extended-release,[11]; [17],109%
same,increase of Cmax by diltiazem extended-release,[11]; [17],63%
same,AUC0-t,"[11]; human, plasma, oral, 10 mg",152 ng·h/mL
same,AUC(0-inf),"[11]; human, plasma, oral, 10 mg",158 ng·h/mL
same,Cmax,"[11]; human, plasma, oral, 10 mg",53 ng/mL
same,Tmax,"[11]; human, plasma, oral, 10 mg",0.5 h
same,half-life,"[11]; human, plasma, oral, 10 mg",2.38 h
same,increase of mean t½ by diltiazem extended-release,[11]; versus saxagliptin alone,0.92 h
same,AUC,"[1]; human, in vivo, 10 mg",153 ng·h/mL
same,Cmax,"[1]; human, in vivo, 10 mg",44 ng/mL
same,Tmax,"[1]; human, in vivo, 10 mg",1 h
same,increase of AUCτ by simvastatin,[1]; [18],12%
"CCC(C)(C)C(=O)O[C@H]1C[C@@H](C)C=C2C=C[C@H](C)[C@H](CC[C@@H]3C[C@@H](O)CC(=O)O3)[C@H]21 [Simvastatin, simvastatin, reference compound]",subjects discontinued due to mild upper respiratory tract infection,"[3]; simvastatin 40-mg group, diagnosed on day 5, deemed possibly related to study drug",One subject
same,decrease of Cmax by saxagliptin,[1],12%
same,increase of AUCτ by saxagliptin,[1],4%
"COc1ccc([C@@H]2Sc3ccccc3N(CCN(C)C)C(=O)[C@@H]2OC(C)=O)cc1 [Diltiazem, diltiazem, reference compound]","first-degree atrioventricular block, subjects",[4],42.9%
same,subjects with first-degree atrioventricular block who discontinued the trial,"[4]; diltiazem extended-release 360 mg alone, on day 5",two of these subjects
same,adverse events reported (of thirteen in the study),[4]; diltiazem extended-release 360 mg monotherapy,12
same,AUC,"[11]; human, plasma, oral, 360 mg",3870 ng·h/mL
same,Cmax,"[11]; human, plasma, oral, 360 mg",262 ng/mL
same,Tmax,"[11]; human, plasma, oral, 360 mg",13 h
"CC(=O)N1CCN(c2ccc(OCC3COC(Cn4ccnc4)(c4ccc(Cl)cc4Cl)O3)cc2)CC1 (stereo not drawn) [Ketoconazole, ketoconazole]","headache, subjects","[2]; ketoconazole alone treatment group, 10/16",62.5%
same,subjects discontinued due to adverse event of increased transaminases,"[2]; mild, beginning on day 8, lasting 11 days, following ketoconazole alone",One subject
same,AUC,"[5]; human, plasma, 200 mg",42300 ng·h/mL
same,Cmax,"[5]; human, plasma, 200 mg",7040 ng/mL
same,Tmax,"[5]; human, plasma, 200 mg",2 h
same,decrease of AUCτ by saxagliptin,[5]; [19],13%
same,decrease of Cmax by saxagliptin,[5]; [19],16%
"N#C[C@@H]1C[C@@H]2C[C@@H]2N1C(=O)[C@@H](N)C12CC3CC(O)(CC(O)(C3)C1)C2 [5-Hydroxy saxagliptin, 5-hydroxy saxagliptin]",decrease of AUC0-t by ketoconazole,[5]; [16],91%
same,decrease of AUC∞ by ketoconazole,[5]; [16],88%
same,decrease of Cmax by ketoconazole,[5]; [16],95%
same,Cmax,"[5]; plasma, SAXA + KETO, saxagliptin 100 mg + ketoconazole 200 mg every 12 hours (day 9), geometric mean (CV%), n = 15",53 (49) ng/mL
same,Cmax,"[5]; plasma, SAXA, saxagliptin 100 mg administered alone (day 1), geometric mean (CV%), n = 15",999 (24) ng/mL
same,AUC0-t,[5]; [20],473 (59) ng · h/mL
same,AUC∞,[5]; [20],627 (43) ng · h/mL
same,t½,[5]; saxagliptin 100 mg + ketoconazole 200 mg every 12 hours (day 9),6.33 (2.49) h
same,Tmax,"[5]; saxagliptin 100 mg + ketoconazole 200 mg every 12 hours (day 9), median (minimum, maximum)","2.00 (0.75, 4.00) h"
same,AUC0-t,[5]; [21],5294 (19) ng · h/mL
same,AUC∞,[5]; [21],5381 (19) ng · h/mL
same,t½,[5]; saxagliptin 100 mg administered alone (day 1),3.68 (0.53) h
same,Tmax,"[5]; saxagliptin 100 mg administered alone (day 1), median (minimum, maximum)","1.50 (1.00, 2.00) h"
same,DPP-4 inhibitive potency relative to the parent saxagliptin,DPP-4,one-half
same,induction of CYP2C9,CYP2C9 [6],do not induce
same,inhibition of CYP1A2,CYP1A2 [12],neither saxagliptin nor 5-hydroxy saxagliptin inhibits
same,inhibition of CYP2C19,CYP2C19,neither saxagliptin nor 5-hydroxy saxagliptin inhibits
same,induction of CYP3A4,CYP3A4 [7],do not induce
same,inhibition of CYP3A4,CYP3A4 [8],neither saxagliptin nor 5-hydroxy saxagliptin inhibits
same,induction of CYP1A2,CYP1A2 [13],do not induce
same,inhibition of CYP2B6,CYP2B6 [14],neither saxagliptin nor 5-hydroxy saxagliptin inhibits
same,inhibition of CYP2E1,CYP2E1,neither saxagliptin nor 5-hydroxy saxagliptin inhibits
same,renal clearance,[9],~120 mL/min
same,inhibition of CYP2A6,CYP2A6,neither saxagliptin nor 5-hydroxy saxagliptin inhibits
same,inhibition of CYP2C9,CYP2C9 [10],neither saxagliptin nor 5-hydroxy saxagliptin inhibits
same,induction of CYP2B6,CYP2B6 [15],do not induce
same,inhibition of CYP2D6,CYP2D6,neither saxagliptin nor 5-hydroxy saxagliptin inhibits
same,decrease of AUC0-t by diltiazem extended-release,[11]; [17],36%
same,decrease of AUC∞ by diltiazem extended-release,[11]; [17],34%
same,decrease of Cmax by diltiazem extended-release,[11]; [17],43%
same,Cmax,"[11]; plasma, SAXA + DILT XR, saxagliptin 10 mg + diltiazem extended-release 360 mg (day 10), geometric mean (CV%), n = 12",63 (26) ng/mL
same,Cmax,"[11]; plasma, SAXA, saxagliptin 10 mg administered alone (day 1), geometric mean (CV%), n = 12",111 (20) ng/mL
same,AUC0-t,[11]; [22],338 (24) ng · h/mL
same,AUC∞,[11]; [22],353 (23) ng · h/mL
same,t½,[11]; saxagliptin 10 mg + diltiazem extended-release 360 mg (day 10),3.30 (0.53) h
same,Tmax,"[11]; saxagliptin 10 mg + diltiazem extended-release 360 mg (day 10), median (minimum, maximum)","1.50 (1.00, 2.50) h"
same,AUC0-t,[11]; [23],526 (25) ng · h/mL
same,AUC∞,[11]; [23],538 (25) ng · h/mL
same,t½,[11]; saxagliptin 10 mg administered alone (day 1),3.04 (0.38) h
same,Tmax,"[11]; saxagliptin 10 mg administered alone (day 1), median (minimum, maximum)","1.50 (1.00, 2.00) h"
same,Cmax,"[1]; plasma, SAXA + SIMVA, saxagliptin 10 mg + simvastatin 40 mg (day 12), geometric mean (CV%), n = 23",103 (29) ng/mL
same,Cmax,"[1]; plasma, SAXA, saxagliptin 10 mg administered alone (day 4), geometric mean (CV%), n = 23",96 (33) ng/mL
same,AUCτ,"[1]; plasma, saxagliptin 10 mg + simvastatin 40 mg (day 12), geometric mean (CV%), n = 23",538 (24) ng · h/mL
same,AUCτ,"[1]; plasma, saxagliptin 10 mg administered alone (day 4), geometric mean (CV%), n = 23",529 (26) ng · h/mL
same,Tmax,"[1]; saxagliptin 10 mg + simvastatin 40 mg (day 12), median (minimum, maximum)","1.50 (1.00, 2.00) h"
same,increase of AUCτ by simvastatin,[1]; [18],2%
same,increase of Cmax by simvastatin,[1]; [18],8%
same,Tmax,"[1]; saxagliptin 10 mg administered alone (day 4), median (minimum, maximum)","1.50 (1.00, 3.00) h"
